According to patent publication US9062071B2, “Substituted piperidines as HDM2 inhibitors” (Merck Sharp & Dohme Corp, priority 2011, dated 2015):

Target: HDM2 protein (Homo sapiens, UniProt Q00987)
Assay: fluorescence polarization screening assay (FP IC50)
Assay type: binding
Settings: class symbols
Procedure: The compounds were evaluated to determine activity at the HDM2 protein by known methods such as the fluorescence polarization screening assay that measures the inhibitory concentration that achieves 50% of maximal activity (FP IC50) and the dissociation constant for inhibitor binding (FP Ki). [Zhang et al., J. Analytical Biochemistry 331: 138-146 (2004)].

HDM2 protein, sequence (Q00987 whole entry): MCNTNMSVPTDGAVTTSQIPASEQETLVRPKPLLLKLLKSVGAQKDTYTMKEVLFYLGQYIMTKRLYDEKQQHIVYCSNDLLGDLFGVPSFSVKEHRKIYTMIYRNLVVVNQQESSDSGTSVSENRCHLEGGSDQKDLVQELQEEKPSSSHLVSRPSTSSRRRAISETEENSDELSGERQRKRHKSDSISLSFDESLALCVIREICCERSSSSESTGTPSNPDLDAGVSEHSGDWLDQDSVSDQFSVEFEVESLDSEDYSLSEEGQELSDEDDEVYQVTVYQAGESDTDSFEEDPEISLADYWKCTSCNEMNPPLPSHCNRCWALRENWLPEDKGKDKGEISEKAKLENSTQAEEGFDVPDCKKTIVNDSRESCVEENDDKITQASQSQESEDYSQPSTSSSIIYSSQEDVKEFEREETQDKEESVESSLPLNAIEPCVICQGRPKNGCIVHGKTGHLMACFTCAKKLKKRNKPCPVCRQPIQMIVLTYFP

Structure (SMILES) | IC50 [nM]
CCC[C@H]1N(C(=O)c2ncccc2C(F)(F)F)CCC[C@@]1(Oc1csc(C(F)(F)F)c1)C(=O)N1Cc2ccc(F)cc2C[C@H]1CCC(=O)O [Compound A127, 3-[(3R)-6-fluoro-2-{[(2R,3S)-2-propyl-1-{[3-(trifluoromethyl)pyridin-2-yl]carbonyl}-3-{[5-(trifluoromethyl)thiophen-3-yl]oxy}piperidin-3-yl]carbonyl}-1,2,3,4-tetrahydroisoquinolin-3-yl]propanoic acid] | 1 to 100
CCC[C@H]1N(C(=O)c2ncccc2C(F)(F)F)CCC[C@@]1(Oc1csc(C(F)(F)F)c1)C(=O)N1Cc2cc(F)ccc2C[C@H]1C(=O)O [Compound A128, (3S)-7-fluoro-2-{[(2R,3S)-2-propyl-1-{[3-(trifluoromethyl)pyridin-2-yl]carbonyl}-3-{[5-(trifluoromethyl)thiophen-3-yl]oxy}piperidin-3-yl]carbonyl}-1,2,3,4-tetrahydroisoquinoline-3-carboxylic acid] | 1 to 100
CCC[C@H]1N(C(=O)c2ncccc2C(F)(F)F)CCC[C@@]1(Oc1csc(C(F)(F)F)c1)C(=O)N1Cc2ccc(Cl)cc2C[C@@H]1C(=O)O [Compound A129, (3R)-6-chloro-2-{[(2R,3S)-2-propyl-1-{[3-(trifluoromethyl)pyridin-2-yl]carbonyl}-3-{[5-(trifluoromethyl)thiophen-3-yl]oxy}piperidin-3-yl]carbonyl}-1,2,3,4-tetrahydroisoquinoline-3-carboxylic acid] | 1 to 100
CCC[C@H]1N(C(=O)c2ncccc2C(F)(F)F)CCC[C@@]1(Oc1csc(C(F)(F)F)c1)C(=O)N1Cc2ccc(Cl)cc2C[C@@H]1CCC(=O)O [Compound A130, 3-[(3S)-6-chloro-2-{[(2R,3S)-2-propyl-1-{[3-(trifluoromethyl)pyridin-2-yl]carbonyl}-3-{[5-(trifluoromethyl)thiophen-3-yl]oxy}piperidin-3-yl]carbonyl}-1,2,3,4-tetrahydroisoquinolin-3-yl]propanoic acid] | 1 to 100
CCC[C@H]1N(C(=O)c2ncccc2C(F)(F)F)CCC[C@@]1(Oc1csc(C(F)(F)F)c1)C(=O)N1Cc2ccc(F)cc2C[C@@H]1CCCCC(=O)O [Compound A131, 5-[(3S)-6-fluoro-2-{[(2R,3S)-2-propyl-1-{[3-(trifluoromethyl)pyridin-2-yl]carbonyl}-3-{[5-(trifluoromethyl)thiophen-3-yl]oxy}piperidin-3-yl]carbonyl}-1,2,3,4-tetrahydroisoquinolin-3-yl]pentanoic acid] | 1 to 100
CCC[C@H]1N(C(=O)c2ncccc2C(F)(F)F)CCC[C@@]1(Oc1csc(C(F)(F)F)c1)C(=O)N1Cc2cc(F)ccc2C[C@@H]1CCC(=O)O [Compound A132, 3-[(3S)-7-fluoro-2-{[(2R,3S)-2-propyl-1-{[3-(trifluoromethyl)pyridin-2-yl]carbonyl}-3-{[5-(trifluoromethyl)thiophen-3-yl]oxy}piperidin-3-yl]carbonyl}-1,2,3,4-tetrahydroisoquinolin-3-yl]propanoic acid] | 1 to 100
CCC[C@H]1N(C(=O)c2ncccc2C(F)(F)F)CCC[C@@]1(Oc1csc(C(F)(F)F)c1)C(=O)N1Cc2ccc(Cl)cc2C[C@@H]1C(C)CC(=O)O (stereo partly drawn) [Compound A133, 3-[(3R)-6-chloro-2-{[(2R,3S)-2-propyl-1-{[3-(trifluoromethyl)pyridin-2-yl]carbonyl}-3-{[5-(trifluoromethyl)thiophen-3-yl]oxy}piperidin-3-yl]carbonyl}-1,2,3,4-tetrahydroisoquinolin-3-yl]butanoic acid] | 1 to 100
CCC[C@H]1N(C(=O)c2ncccc2C(F)(F)F)CCC[C@@]1(Oc1csc(C(F)(F)F)c1)C(=O)N1Cc2ccc(Br)cc2C[C@@H]1C(=O)O [Compound A134, (3R)-6-bromo-2-{[(2R,3S)-2-propyl-1-{[3-(trifluoromethyl)pyridin-2-yl]carbonyl}-3-{[5-(trifluoromethyl)thiophen-3-yl]oxy}piperidin-3-yl]carbonyl}-1,2,3,4-tetrahydroisoquinoline-3-carboxylic acid] | 1 to 100
CCC[C@H]1N(C(=O)c2ncccc2C(F)(F)F)CCC[C@@]1(Oc1csc(C(F)(F)F)c1)C(=O)N1Cc2ccc(Cl)cc2C[C@@H]1CCC(=O)N(C)C [Compound A135, 3-[(3S)-6-chloro-2-{[(2R,3S)-2-propyl-1-{[3-(trifluoromethyl)pyridin-2-yl]carbonyl}-3-{[5-(trifluoromethyl)thiophen-3-yl]oxy}piperidin-3-yl]carbonyl}-1,2,3,4-tetrahydroisoquinolin-3-yl]-N,N-dimethylpropanamide] | 1 to 100
CCC[C@H]1N(C(=O)c2ncccc2C(F)(F)F)CCC[C@@]1(Oc1csc(C(F)(F)F)c1)C(=O)N1Cc2ccc(Cl)cc2C[C@@H]1CCC(=O)NC [Compound A136, 3-[(3S)-6-chloro-2-{[(2R,3S)-2-propyl-1-{[3-(trifluoromethyl)pyridin-2-yl]carbonyl}-3-{[5-(trifluoromethyl)thiophen-3-yl]oxy}piperidin-3-yl]carbonyl}-1,2,3,4-tetrahydroisoquinolin-3-yl]-N-methylpropanamide] | 1 to 100
CCC[C@H]1N(C(=O)c2ncccc2C(F)(F)F)CCC[C@@]1(Oc1csc(C(F)(F)F)c1)C(=O)N1Cc2ccc(Cl)cc2C[C@@H]1C[C@H](C)C(=O)O [Compound A137, (2S)-3-[(3S)-6-chloro-2-{[(2R,3S)-2-propyl-1-{[3-(trifluoromethyl)pyridin-2-yl]carbonyl}-3-{[5-(trifluoromethyl)thiophen-3-yl]oxy}piperidin-3-yl]carbonyl}-1,2,3,4-tetrahydroisoquinolin-3-yl]-2-methylpropanoic acid] | 1 to 100
CCC[C@H]1N(C(=O)c2ncccc2C(F)(F)F)CCC[C@@]1(Oc1csc(C(F)(F)F)c1)C(=O)N1CCc2ccc(F)cc2C1 [Compound A138, 7-fluoro-2-{[(2R,3S)-2-propyl-1-{[3-(trifluoromethyl)pyridin-2-yl]carbonyl}-3-{[5-(trifluoromethyl)thiophen-3-yl]oxy}piperidin-3-yl]carbonyl}-1,2,3,4-tetrahydroisoquinoline] | 101 to 20000
CCC[C@H]1N(C(=O)c2ncccc2C(F)(F)F)CCC[C@@]1(Oc1csc(C(F)(F)F)c1)C(=O)N1CCc2ccc(Cl)cc2C1 [Compound A139, 7-chloro-2-{[(2R,3S)-2-propyl-1-{[3-(trifluoromethyl)pyridin-2-yl]carbonyl}-3-{[5-(trifluoromethyl)thiophen-3-yl]oxy}piperidin-3-yl]carbonyl}-1,2,3,4-tetrahydroisoquinoline] | 101 to 20000
CCC[C@H]1N(C(=O)c2ncccc2C(F)(F)F)CCC[C@@]1(Oc1csc(C(F)(F)F)c1)C(=O)N1CCc2ccc(OC)cc2C1 [Compound A140, 7-methoxy-2-{[(2R,3S)-2-propyl-1-{[3-(trifluoromethyl)pyridin-2-yl]carbonyl}-3-{[5-(trifluoromethyl)thiophen-3-yl]oxy}piperidin-3-yl]carbonyl}-1,2,3,4-tetrahydroisoquinoline] | 101 to 20000
CCC[C@H]1N(C(=O)c2ncccc2C(F)(F)F)CCC[C@@]1(Oc1csc(C(F)(F)F)c1)C(=O)N1Cc2ccc(Cl)cc2C[C@@H]1CCCF [Compound A141, (3S)-6-chloro-3-(3-fluoropropyl)-2-{[(2R,3S)-2-propyl-1-{[3-(trifluoromethyl)pyridin-2-yl]carbonyl}-3-{[5-(trifluoromethyl)thiophen-3-yl]oxy}piperidin-3-yl]carbonyl}-1,2,3,4-tetrahydroisoquinoline] | 101 to 20000
CCC[C@H]1N(C(=O)c2ncccc2C(F)(F)F)CCC[C@@]1(Oc1csc(C(F)(F)F)c1)C(=O)N1CCc2ccc(Br)cc2C1 [Compound A142, 7-bromo-2-{[(2R,3S)-2-propyl-1-{[3-(trifluoromethyl)pyridin-2-yl]carbonyl}-3-{[5-(trifluoromethyl)thiophen-3-yl]oxy}piperidin-3-yl]carbonyl}-1,2,3,4-tetrahydroisoquinoline] | 101 to 20000
CCC[C@H]1N(C(=O)c2ncccc2C(F)(F)F)CCC[C@@]1(Oc1csc(C(F)(F)F)c1)C(=O)N1Cc2ccc(Cl)cc2C[C@H]1CCC(=O)O [Compound A143, 3-[(3R)-6-chloro-2-{[(2R,3S)-2-propyl-1-{[3-(trifluoromethyl)pyridin-2-yl]carbonyl}-3-{[5-(trifluoromethyl)thiophen-3-yl]oxy}piperidin-3-yl]carbonyl}-1,2,3,4-tetrahydroisoquinolin-3-yl]propanoic acid] | 1 to 100
CCC[C@H]1N(C(=O)c2ncccc2C(F)(F)F)CCC[C@@]1(Oc1csc(C(F)(F)F)c1)C(=O)N1Cc2ccc(F)cc2C[C@@H]1CC(=O)O [Compound A144, [(3R)-6-fluoro-2-{[(2R,3S)-2-propyl-1-{[3-(trifluoromethyl)pyridin-2-yl]carbonyl}-3-{[5-(trifluoromethyl)thiophen-3-yl]oxy}piperidin-3-yl]carbonyl}-1,2,3,4-tetrahydroisoquinolin-3-yl]acetic acid] | 1 to 100
CCC[C@H]1N(C(=O)c2ncccc2C(F)(F)F)CCC[C@@]1(Oc1csc(C(F)(F)F)c1)C(=O)N1Cc2ccc(Cl)cc2C[C@@H]1CCC(=O)NO [Compound A145, 3-[(3S)-6-chloro-2-{[(2R,3S)-2-propyl-1-{[3-(trifluoromethyl)pyridin-2-yl]carbonyl}-3-{[5-(trifluoromethyl)thiophen-3-yl]oxy}piperidin-3-yl]carbonyl}-1,2,3,4-tetrahydroisoquinolin-3-yl]-N-hydroxypropanamide] | 1 to 100
CCC[C@H]1N(C(=O)c2ncccc2C(F)(F)F)CCC[C@@]1(Oc1csc(C(F)(F)F)c1)C(=O)N1Cc2ccc(F)cc2C[C@@H]1CCCC(=O)O [Compound A146, 4-[(3S)-6-fluoro-2-{[(2R,3S)-2-propyl-1-{[3-(trifluoromethyl)pyridin-2-yl]carbonyl}-3-{[5-(trifluoromethyl)thiophen-3-yl]oxy}piperidin-3-yl]carbonyl}-1,2,3,4-tetrahydroisoquinolin-3-yl]butanoic acid] | 1 to 100
